Measurements: publication PMC9629851, “Cardiac myosin filaments are directly regulated by calcium” (The Journal of General Physiology, 2022)

What was measured:
[1] = target: T1, β-cardiac full-length myosin (Bos taurus, UniProt Q9BE39); experiment: basal ATPase, enzymatically coupled assay on purified myosin; type: biochemical
T1 construct: gene MYH7; full-length myosin in synthetic thick filaments; also HMM and S1-subfragment

[2] = target: T2, Human β-cardiac myosin (2-hep and 25-hep HMM) (Homo sapiens, UniProt P12883); experiment: basal ATPase assay of recombinant HMM; type: biochemical
T2 construct: gene MYH7
T2 sequence (P12883 1-855): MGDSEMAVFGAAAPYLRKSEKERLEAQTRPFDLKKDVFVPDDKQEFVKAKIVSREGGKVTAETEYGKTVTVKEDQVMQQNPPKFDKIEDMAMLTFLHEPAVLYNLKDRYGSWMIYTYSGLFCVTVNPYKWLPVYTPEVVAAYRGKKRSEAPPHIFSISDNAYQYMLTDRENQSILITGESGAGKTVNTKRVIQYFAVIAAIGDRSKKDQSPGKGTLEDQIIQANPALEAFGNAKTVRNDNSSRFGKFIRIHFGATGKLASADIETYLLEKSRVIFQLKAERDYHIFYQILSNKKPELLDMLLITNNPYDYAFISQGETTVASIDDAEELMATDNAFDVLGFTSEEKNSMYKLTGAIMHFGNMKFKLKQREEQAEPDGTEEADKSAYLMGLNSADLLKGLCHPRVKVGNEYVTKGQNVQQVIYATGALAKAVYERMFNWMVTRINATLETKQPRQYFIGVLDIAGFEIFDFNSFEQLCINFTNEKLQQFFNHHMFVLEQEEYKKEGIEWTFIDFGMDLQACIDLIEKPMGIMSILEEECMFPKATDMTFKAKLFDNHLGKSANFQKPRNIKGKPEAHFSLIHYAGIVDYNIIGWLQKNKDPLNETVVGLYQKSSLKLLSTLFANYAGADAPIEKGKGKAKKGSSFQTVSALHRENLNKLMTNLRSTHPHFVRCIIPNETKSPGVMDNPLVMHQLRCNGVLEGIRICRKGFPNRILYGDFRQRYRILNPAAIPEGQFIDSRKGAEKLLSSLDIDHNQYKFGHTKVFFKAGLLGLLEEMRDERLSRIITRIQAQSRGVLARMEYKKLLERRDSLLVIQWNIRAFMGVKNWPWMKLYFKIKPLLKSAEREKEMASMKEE

T1 sequence (Q9BE39 whole entry, the tested form may be a part): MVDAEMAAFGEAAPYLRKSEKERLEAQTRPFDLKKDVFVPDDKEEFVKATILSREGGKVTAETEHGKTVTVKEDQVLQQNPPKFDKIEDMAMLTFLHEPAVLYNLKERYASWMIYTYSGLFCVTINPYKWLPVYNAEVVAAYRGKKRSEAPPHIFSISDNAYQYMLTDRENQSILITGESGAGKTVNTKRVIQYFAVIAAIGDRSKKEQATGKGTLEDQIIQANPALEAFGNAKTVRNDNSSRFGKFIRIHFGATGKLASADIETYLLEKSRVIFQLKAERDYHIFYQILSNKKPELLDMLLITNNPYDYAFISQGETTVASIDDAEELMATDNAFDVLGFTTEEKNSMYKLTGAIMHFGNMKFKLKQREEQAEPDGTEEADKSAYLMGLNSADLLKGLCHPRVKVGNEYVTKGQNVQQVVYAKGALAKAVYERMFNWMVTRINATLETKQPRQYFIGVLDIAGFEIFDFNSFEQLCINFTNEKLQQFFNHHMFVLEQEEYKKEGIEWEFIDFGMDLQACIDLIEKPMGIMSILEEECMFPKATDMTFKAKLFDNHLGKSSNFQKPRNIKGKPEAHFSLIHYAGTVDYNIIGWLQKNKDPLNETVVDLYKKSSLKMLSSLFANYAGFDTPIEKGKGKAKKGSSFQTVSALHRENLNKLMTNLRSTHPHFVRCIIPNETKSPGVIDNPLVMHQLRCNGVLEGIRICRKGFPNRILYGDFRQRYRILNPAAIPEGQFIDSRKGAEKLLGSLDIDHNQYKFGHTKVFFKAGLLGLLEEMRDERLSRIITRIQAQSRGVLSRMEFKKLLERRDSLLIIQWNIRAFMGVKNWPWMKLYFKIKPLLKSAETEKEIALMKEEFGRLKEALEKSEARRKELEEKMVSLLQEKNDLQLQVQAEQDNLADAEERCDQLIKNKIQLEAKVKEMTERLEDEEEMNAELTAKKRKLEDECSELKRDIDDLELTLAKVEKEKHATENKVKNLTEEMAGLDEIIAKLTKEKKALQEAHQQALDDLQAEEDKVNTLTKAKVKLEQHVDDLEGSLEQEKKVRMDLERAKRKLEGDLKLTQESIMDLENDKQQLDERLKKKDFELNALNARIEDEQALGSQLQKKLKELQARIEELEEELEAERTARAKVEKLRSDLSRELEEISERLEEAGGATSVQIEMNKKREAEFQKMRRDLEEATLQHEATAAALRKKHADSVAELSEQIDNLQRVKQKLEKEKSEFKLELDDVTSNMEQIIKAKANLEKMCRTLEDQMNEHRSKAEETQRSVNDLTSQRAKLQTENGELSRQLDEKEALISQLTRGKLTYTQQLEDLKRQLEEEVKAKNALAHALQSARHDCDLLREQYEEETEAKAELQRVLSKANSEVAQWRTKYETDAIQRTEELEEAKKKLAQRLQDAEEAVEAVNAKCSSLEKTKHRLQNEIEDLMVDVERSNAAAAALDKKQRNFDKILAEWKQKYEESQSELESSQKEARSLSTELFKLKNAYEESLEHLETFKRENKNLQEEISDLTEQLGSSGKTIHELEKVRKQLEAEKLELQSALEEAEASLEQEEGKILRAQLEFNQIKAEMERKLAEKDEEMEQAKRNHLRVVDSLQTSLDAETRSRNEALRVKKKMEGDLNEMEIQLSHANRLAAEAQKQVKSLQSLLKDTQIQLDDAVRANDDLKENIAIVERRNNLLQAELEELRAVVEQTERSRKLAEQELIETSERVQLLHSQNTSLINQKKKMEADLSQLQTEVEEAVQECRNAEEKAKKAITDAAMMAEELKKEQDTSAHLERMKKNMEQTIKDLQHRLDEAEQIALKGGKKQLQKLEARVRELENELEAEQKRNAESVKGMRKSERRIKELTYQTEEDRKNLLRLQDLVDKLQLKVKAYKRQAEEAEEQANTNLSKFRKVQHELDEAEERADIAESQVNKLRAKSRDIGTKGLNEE

Q: `Nc1ncnc2c1ncn2[C@@H]1O[C@H](COP(=O)(O)OP(=O)(O)OP(=O)(O)O)[C@@H](O)[C@H]1O` [ATP] was tested. Which “Raw values at pCa 8” value [1] did it give?
A: 0.03 ± 0.01 s^−1

Q: What about the “Raw values at pCa 8” value [2] of the same compound?
A: 0.1 ± 0.05 s^−1
